Source: patent US20240368169A1 (priority 2021, published 2024)

Tests used:
[1] = biological target: recombinant poly(ADP-ribose) polymerase 2 (PARP2) (Homo sapiens, UniProt Q9UGN5); test: biochemical; details: inhibition of PARP2 enzyme activity, chemiluminescence
[2] = tested on: MDA-MB-436 cells; test: Growth inhibition assay against BRCA mutant human breast cancer MDA-MB-436 cell line (CCK-8, 7 days); assay type: cell-based
[3] = biological target: recombinant poly(ADP-ribose) polymerase 1 (PARP1) (Homo sapiens, UniProt P09874); test: biochemical; details: inhibition of PARP1 enzyme activity, chemiluminescence
Sequence of recombinant poly(ADP-ribose) polymerase 1 (PARP1) (P09874 whole entry): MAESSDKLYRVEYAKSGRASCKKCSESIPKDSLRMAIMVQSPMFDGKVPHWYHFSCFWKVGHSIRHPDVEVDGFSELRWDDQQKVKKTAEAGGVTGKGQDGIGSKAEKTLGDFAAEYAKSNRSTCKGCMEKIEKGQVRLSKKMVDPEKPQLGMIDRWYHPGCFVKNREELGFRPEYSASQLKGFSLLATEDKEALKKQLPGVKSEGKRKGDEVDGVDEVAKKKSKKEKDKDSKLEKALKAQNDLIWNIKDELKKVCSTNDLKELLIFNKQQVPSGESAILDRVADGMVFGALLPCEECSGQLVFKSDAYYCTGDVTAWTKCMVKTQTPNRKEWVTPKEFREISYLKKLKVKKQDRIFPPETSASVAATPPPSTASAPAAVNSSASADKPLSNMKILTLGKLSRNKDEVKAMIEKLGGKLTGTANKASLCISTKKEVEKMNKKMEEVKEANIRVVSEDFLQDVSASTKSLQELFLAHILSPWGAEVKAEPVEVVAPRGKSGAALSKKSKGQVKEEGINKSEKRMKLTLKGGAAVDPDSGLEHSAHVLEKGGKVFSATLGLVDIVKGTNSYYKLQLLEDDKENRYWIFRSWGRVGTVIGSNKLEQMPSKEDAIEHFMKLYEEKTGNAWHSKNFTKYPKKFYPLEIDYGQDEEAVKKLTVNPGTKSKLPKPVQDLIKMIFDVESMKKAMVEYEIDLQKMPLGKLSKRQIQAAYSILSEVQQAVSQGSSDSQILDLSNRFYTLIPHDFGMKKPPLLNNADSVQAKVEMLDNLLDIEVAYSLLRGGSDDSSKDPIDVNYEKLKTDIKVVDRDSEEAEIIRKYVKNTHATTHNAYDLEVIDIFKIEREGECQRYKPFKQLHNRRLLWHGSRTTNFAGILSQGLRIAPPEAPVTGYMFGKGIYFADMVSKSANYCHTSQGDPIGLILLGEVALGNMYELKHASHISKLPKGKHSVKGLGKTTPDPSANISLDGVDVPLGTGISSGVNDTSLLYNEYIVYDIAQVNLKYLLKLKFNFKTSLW

Sequence of recombinant poly(ADP-ribose) polymerase 2 (PARP2) (Q9UGN5 whole entry): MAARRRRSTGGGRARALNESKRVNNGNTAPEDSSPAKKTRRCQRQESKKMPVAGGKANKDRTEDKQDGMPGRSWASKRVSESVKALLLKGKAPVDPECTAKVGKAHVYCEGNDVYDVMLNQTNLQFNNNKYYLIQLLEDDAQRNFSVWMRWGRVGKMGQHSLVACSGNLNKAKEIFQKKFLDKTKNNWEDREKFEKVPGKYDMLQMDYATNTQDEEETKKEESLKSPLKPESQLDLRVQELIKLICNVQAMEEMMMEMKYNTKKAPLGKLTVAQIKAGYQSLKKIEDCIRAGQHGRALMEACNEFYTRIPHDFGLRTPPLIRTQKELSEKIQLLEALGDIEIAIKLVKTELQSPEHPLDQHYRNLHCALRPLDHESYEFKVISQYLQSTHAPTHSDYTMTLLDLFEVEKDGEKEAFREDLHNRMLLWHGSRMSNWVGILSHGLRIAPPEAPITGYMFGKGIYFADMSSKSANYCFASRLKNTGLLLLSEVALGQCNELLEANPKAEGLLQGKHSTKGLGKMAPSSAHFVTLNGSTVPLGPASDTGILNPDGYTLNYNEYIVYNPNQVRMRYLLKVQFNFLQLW

SMILES	IC50 [1]	IC50 [2]	IC50 [3]
CNC(=O)c1ccc(N2CCN(Cc3ccc4c5c(c(=O)[nH]c4c3)COC5)CC2)c(F)n1 [Example 2, 7-((4-(2-fluoro-6-(methylcarbamoyl)pyridin-3-yl)piperazin-1-yl)methyl)-3,5-dihydrofuro[3,4-c]quinolin-4(1H)-one]	128 nM	2.65 nM	1.91 nM
CNC(=O)c1ccc(N2CCN(Cc3ccc4c5c(c(=O)[nH]c4c3)COC5)CC2)c(Cl)n1 [Example 3, 7-((4-(2-chloro-6-(methylcarbamoyl)pyridin-3-yl)piperazin-1-yl)methyl)-3,5-dihydrofuro[3,4-c]quinolin-4(1H)-one]	467 nM	5.01 nM	1.33 nM
CNC(=O)c1ccc(N2CCN(Cc3ccc4c5c(c(=O)[nH]c4c3)COC5)CC2)c(C)n1 [Example 4, 7-((4-(2-methyl-6-(methylcarbamoyl)pyridin-3-yl)piperazin-1-yl)methyl)-3,5-dihydrofuro[3,4-c]quinolin-4(1H)-one]	188 nM	4.22 nM	1.59 nM
CCNC(=O)c1ccc(N2CCN(Cc3ccc4c5c(c(=O)[nH]c4c3)COC5)CC2)c(Cl)n1 [Example 6, 7-((4-(2-chloro-6-(ethylcarbamoyl)pyridin-3-yl)piperazin-1-yl)methyl)-3,5-dihydrofuro[3,4-c]quinolin-4(1H)-one]	–	17.7 nM	1.86 nM
CCNC(=O)c1ccc(N2CCN(Cc3ccc4c5c(c(=O)[nH]c4c3)COC5)CC2)c(C)n1 [Example 7, 7-((4-(2-methyl-6-(ethylcarbamoyl)pyridin-3-yl)piperazin-1-yl)methyl)-3,5-dihydrofuro[3,4-c]quinolin-4(1H)-one]	–	4.36 nM	1.9 nM
CNC(=O)c1ccc(N2CCN(Cc3ccc4c5c(c(=O)[nH]c4c3)CCC5)CC2)c(Cl)n1 [Example 16, 7-((4-(2-chloro-6-(methylcarbamoyl)pyridin-3-yl)piperazin-1-yl)methyl)-1,2,3,5-tetrahydro-4H-cyclopenta[c]quinolin-4-one]	–	1.71 nM	1.99 nM
CNC(=O)c1ccc(N2CCN(Cc3ccc4c(c3)[nH]c(=O)c3cccn34)CC2)c(C)n1 [Example 24, 7-((4-(2-methyl-6-(methylcarbamoyl)pyridin-3-yl)piperazin-1-yl)methyl)pyrrolo[1,2-a]quinoxalin-4(5H)-one]	31.5 nM	0.78 nM	0.83 nM
CNC(=O)c1ccc(N2CCN(Cc3ccc4c(c3)[nH]c(=O)c3nccn34)CC2)c(C)n1 [Example 25, 7-((4-(2-methyl-6-(methylcarbamoyl)pyridin-3-yl)piperazin-1-yl)methyl)imidazo[1,2-a]quinoxalin-4(5H)-one]	–	44.9 nM	1.93 nM
CNC(=O)c1ccc(N2CCN(Cc3ccc4c(c3)[nH]c(=O)c3ccnn34)CC2)c(C)n1 [Example 28, 7-((4-(2-methyl-6-(methylcarbamoyl)pyridin-3-yl)piperazin-1-yl)methyl)pyrazolo[1,5-a]quinoxalin-4(5H)-one]	> 3000 nM	0.98 nM	0.77 nM
CNC(=O)c1ccc(N2CCN(Cc3ccc4c(c3)[nH]c(=O)n3cncc43)CC2)c(C)n1 [Example 30, 8-((4-(2-methyl-6-(methylcarbamoyl)pyridin-3-yl)piperazin-1-yl)methyl)imidazo[1,5-c]quinazolin-5(6H)-one]	2590 nM	–	1.54 nM
CNC(=O)c1ccc(N2CCN(Cc3ccc4c(c3)[nH]c(=O)c3cccn34)CC2)c(Cl)n1 [Example 35, 7-((4-(2-chloro-6-(methylcarbamoyl)pyridin-3-yl)piperazin-1-yl)methyl)pyrrolo[1,2-a]quinoxalin-4(5H)-one]	26.3 nM	0.39 nM	0.81 nM
CNC(=O)c1ccc(N2CCN(Cc3ccc4c(c3)[nH]c(=O)c3ccnn34)CC2)c(F)n1 [Example 36, 7-((4-(2-fluoro-6-(methylcarbamoyl)pyridin-3-yl)piperazin-1-yl)methyl)pyrazolo[1,5-a]quinoxalin-4(5H)-one]	41.4 nM	1.11 nM	0.44 nM
CNC(=O)c1ccc(N2CCN(Cc3ccc4c(c3)[nH]c(=O)c3ccnn34)CC2)c(Cl)n1 [Example 37, 7-((4-(2-chloro-6-(methylcarbamoyl)pyridin-3-yl)piperazin-1-yl)methyl)pyrazolo[1,5-a]quinoxalin-4(5H)-one]	46.5 nM	1.07 nM	0.47 nM
CNC(=O)c1ccc(N2CCN(Cc3cc(F)c4c(c3)[nH]c(=O)n3ccnc43)CC2)c(F)n1 [Example 53, 8-((4-(2-fluoro-6-(methylcarbamoyl)pyridin-3-yl)piperazin-1-yl)methyl)-10-fluoroimidazo[1,2-c]quinazolin-5(6H)-one]	1950 nM	–	2.34 nM
CNC(=O)c1ccc(N2CCN(Cc3ccc4c(c3)[nH]c(=O)c3cscc34)CC2)c(C)n1 [Example 83, 7-((4-(2-methyl-6-(methylcarbamoyl)pyridin-3-yl)piperazin-1-yl)methyl)thieno[3,4-c]quinolin-4(5H)-one]	18.3 nM	–	1.08 nM
CNC(=O)c1ccc(N2CCN(Cc3ccc4c(c3)[nH]c(=O)c3sccc34)CC2)c(C)n1 [Example 84, 7-((4-(2-methyl-6-(methylcarbamoyl)pyridin-3-yl)piperazin-1-yl)methyl)thieno[2,3-c]quinolin-4(5H)-one]	10.1 nM	–	0.77 nM
CNC(=O)c1ccc(N2CCN(Cc3ccc4c(c3)[nH]c(=O)c3ccsc34)CC2)c(C)n1 [Example 85, 7-((4-(2-methyl-6-(methylcarbamoyl)pyridin-3-yl)piperazin-1-yl)methyl)thieno[3,2-c]quinolin-4(5H)-one]	78 nM	–	1.52 nM
CNC(=O)c1ccc(N2CCN(Cc3cc(F)c4c(c3)[nH]c(=O)c3cscc34)CC2)c(C)n1 [Example 86, 7-((4-(2-methyl-6-(methylcarbamoyl)pyridin-3-yl)piperazin-1-yl)methyl)-9-fluorothieno[3,4-c]quinolin-4(5H)-one]	13.3 nM	–	0.66 nM
CNC(=O)c1ccc(N2CCN(Cc3ccc4c(c3)[nH]c(=O)c3occc34)CC2)c(C)n1 [Example 104, 7-((4-(2-methyl-6-(methylcarbamoyl)pyridin-3-yl)piperazin-1-yl)methyl)furo[2,3-c]quinolin-4(5H)-one]	–	–	1.42 nM
CNC(=O)c1ccc(N2CCN(Cc3ccc4c(c3)[nH]c(=O)c3cnn(C)c34)CC2)c(C)n1 [Example 105, 7-((4-(2-methyl-6-(methylcarbamoyl)pyridin-3-yl)piperazin-1-yl)methyl)-1-methyl-1,5-dihydro-4H-pyrazolo[4,3-c]quinolin-4-one]	910 nM	–	–
CNC(=O)c1ccc(N2CCN(Cc3cc(F)c4c(c3)[nH]c(=O)c3occc34)CC2)c(F)n1 [Example 108, 7-((4-(2-fluoro-6-(methylcarbamoyl)pyridin-3-yl)piperazin-1-yl)methyl)-9-fluoro-furo[2,3-c]quinolin-4(5H)-one]	353 nM	–	0.66 nM
CCNC(=O)c1ccc(N2CCN(Cc3ccc4c([nH]c(=O)c5ccnn54)c3F)CC2)c(F)n1 [Example 110, 7-((4-(2-fluoro-6-(ethylcarbamoyl)pyridin-3-yl)piperazin-1-yl)methyl)-6-fluoropyrazolo[1,5-a]quinoxalin-4(5H)-one]	965 nM	–	1.95 nM
O=C(NC1CC1)c1ccc(N2CCN(Cc3ccc4c([nH]c(=O)c5ccnn54)c3F)CC2)c(F)n1 [Example 111, 7-((4-(2-fluoro-6-(cyclopropylcarbamoyl)pyridin-3-yl)piperazin-1-yl)methyl)-6-fluoropyrazolo[1,5-a]quinoxalin-4(5H)-one]	455 nM	–	1.27 nM
CNC(=O)c1ccc(N2CCN(Cc3ccc4c([nH]c(=O)c5cc(Cl)nn54)c3F)CC2)c(F)n1 [Example 112, 7-((4-(2-fluoro-6-(methylcarbamoyl)pyridin-3-yl)piperazin-1-yl)methyl)-6-fluoro-2-chloropyrazolo[1,5-a]quinoxalin-4(5H)-one]	223 nM	–	0.57 nM
CNC(=O)c1ccc(N2CCN(Cc3cc(F)c4c(c3)[nH]c(=O)n3ccnc43)CC2)c(F)n1 [Example 120]	1950 nM	–	–
CNC(=O)c1ccc(N2CCN(Cc3ccc4c(c3)[nH]c(=O)c3c(C)c(C)nn34)CC2)c(F)n1 [Example 125, 7-((4-(2-fluoro-6-(methylcarbamoyl)pyridin-3-yl)piperazin-1-yl)methyl)-2,3-dimethylpyrazolo[1,5-a]quinoxalin-4(5H)-one]	3.7 nM	–	1.05 nM
CNC(=O)c1ccc(N2CCN(Cc3cc(F)c4c(c3)[nH]c(=O)c3c(Cl)cnn34)CC2)c(C)n1 [Example 127, 7-((4-(2-methyl-6-(methylcarbamoyl)pyridin-3-yl)piperazin-1-yl)methyl)-3-chloro-9-fluoropyrazolo[1,5-a]quinoxalin-4(5H)-one]	83 nM	–	0.85 nM
CNC(=O)c1ccc(N2CCN(Cc3ccc4c([nH]c(=O)c5ccnn54)c3C)CC2)c(C)n1 [Example 129, 7-((4-(2-methyl-6-(methylcarbamoyl)pyridin-3-yl)piperazin-1-yl)methyl)-6-methylpyrazolo[1,5-a]quinoxalin-4(5H)-one]	369 nM	–	1.48 nM
CNC(=O)c1ccc(N2CCN(Cc3cc(F)c4c(c3)[nH]c(=O)n3cccc43)CC2)c(C)n1 [Example 131, 8-((4-(2-methyl-6-(methylcarbamoyl)pyridin-3-yl)piperazin-1-yl)methyl)-10-fluoropyrrolo[1,2-c]quinazolin-5(6H)-one]	111 nM	–	0.78 nM
CNC(=O)c1ccc(N2CCN(Cc3ccc4c([nH]c(=O)c5ccnn54)c3C)CC2)c(F)n1 [Example 133, 7-((4-(2-fluoro-6-(methylcarbamoyl)pyridin-3-yl)piperazin-1-yl)methyl)-6-methylpyrazolo[1,5-a]quinoxalin-4(5H)-one]	222 nM	–	1.5 nM
